Test system: rodent lifetime carcinogenesis bioassay, tumor incidence TD50
Test: chronic cancer bioassays in animals – CPDB, compiled studies (AID 1745844)
Conditions: mouse, strain B6C3F1, males, inhaled

Compound: C=CC=C
- TD50 (site: Harderian gland, lesion: adenocarcinoma + adenocarcinoma, bilateral, dosed 52 weeks, study length 104 weeks): 88.9 mg/kg/day
- TD50 (site: Harderian gland, lesion: adenocarcinoma + adenoma + adenocarcinoma, bilateral + adenoma, bilateral, dosed 13 weeks, study length 104 weeks): 11.7 mg/kg/day
- TD50 (site: Harderian gland, lesion: adenocarcinoma + adenoma + adenocarcinoma, bilateral + adenoma, bilateral, dosed 26 weeks, study length 104 weeks): 22.7 mg/kg/day
- TD50 (site: Harderian gland, lesion: adenocarcinoma + adenoma + adenocarcinoma, bilateral + adenoma, bilateral, dosed 52 weeks, study length 104 weeks): 13.1 mg/kg/day
- TD50 (site: Harderian gland, lesion: adenocarcinoma + adenoma + adenoma, bilateral, dosed 40 weeks, study length 104 weeks): 17.5 mg/kg/day
- TD50 (site: Harderian gland, lesion: adenocarcinoma + adenoma + adenoma, bilateral, dosed 82 weeks, study length 104 weeks): 26.1 mg/kg/day
- TD50 (site: Harderian gland, lesion: adenocarcinoma, dosed 40 weeks, study length 104 weeks): 531 mg/kg/day
- TD50 (site: Harderian gland, lesion: adenocarcinoma, dosed 82 weeks, study length 104 weeks): 221 mg/kg/day
- TD50 (site: Harderian gland, lesion: adenoma + adenoma, bilateral, dosed 13 weeks, study length 104 weeks): 14.9 mg/kg/day
- TD50 (site: Harderian gland, lesion: adenoma + adenoma, bilateral, dosed 26 weeks, study length 104 weeks): 22.7 mg/kg/day
- TD50 (site: Harderian gland, lesion: adenoma + adenoma, bilateral, dosed 40 weeks, study length 104 weeks): 18 mg/kg/day
- TD50 (site: Harderian gland, lesion: adenoma + adenoma, bilateral, dosed 52 weeks, study length 104 weeks): 14.9 mg/kg/day
- TD50 (site: Harderian gland, lesion: adenoma + adenoma, bilateral, dosed 82 weeks, study length 104 weeks): 27.6 mg/kg/day
- TD50 (site: Zymbal's gland, lesion: adenoma + carcinoma, dosed 13 weeks, study length 104 weeks): 223 mg/kg/day
- TD50 (site: Zymbal's gland, lesion: adenoma + carcinoma, dosed 26 weeks, study length 104 weeks): 135 mg/kg/day
- TD50 (site: Zymbal's gland, lesion: adenoma + carcinoma, dosed 40 weeks, study length 104 weeks): 647 mg/kg/day
- TD50 (site: Zymbal's gland, lesion: carcinoma, dosed 13 weeks, study length 104 weeks): 336 mg/kg/day
- TD50 (site: Zymbal's gland, lesion: carcinoma, dosed 26 weeks, study length 104 weeks): 135 mg/kg/day
- TD50 (site: Zymbal's gland, lesion: carcinoma, dosed 40 weeks, study length 104 weeks): 625 mg/kg/day
- TD50 (site: all sites + brain + forestomach + Harderian gland + heart + kidney + liver + lung + preputial gland, lesion: histiocytic sarcoma + malignant lymphoma, mixed type + malignant lymphoma, lymphocytic type + malignant lymphoma + olfactory lob, dosed 13 weeks, study length 104 weeks): 7 mg/kg/day
- TD50 (site: all sites + brain + forestomach + Harderian gland + heart + kidney + liver + lung + preputial gland, lesion: histiocytic sarcoma + malignant lymphoma, mixed type + malignant lymphoma, lymphocytic type + malignant lymphoma + olfactory lob, dosed 26 weeks, study length 104 weeks): 12.6 mg/kg/day
- TD50 (site: all sites + forestomach + Harderian gland + heart + kidney + liver + lung + preputial gland, lesion: histiocytic sarcoma + malignant lymphoma, histiocytic type + malignant lymphoma, mixed type + malignant lymphoma, lymphocytic, dosed 82 weeks, study length 104 weeks): 10.7 mg/kg/day
- TD50 (site: all sites + forestomach + Harderian gland + heart + kidney + liver + lung + preputial gland, lesion: histiocytic sarcoma + malignant lymphoma, mixed type + malignant lymphoma, lymphocytic type + malignant lymphoma + squamous-cell, dosed 40 weeks, study length 104 weeks): 10.9 mg/kg/day
- TD50 (site: all sites + forestomach + Harderian gland + heart + kidney + liver + lung + preputial gland, lesion: histiocytic sarcoma + malignant lymphoma, mixed type + malignant lymphoma, lymphocytic type + malignant lymphoma + squamous-cell, dosed 52 weeks, study length 104 weeks): 6.12 mg/kg/day
- TD50 (site: all sites + forestomach + heart + lung, lesion: malignant lymphoma, NOS + papilloma, NOS + squamous-cell papilloma + hemangiosarcoma + alveolar/bronchiolar adenoma + alveolar/bro, dosed 60 weeks, study length 60 weeks): 28.8 mg/kg/day
- TD50 (site: all sites, lesion: hemangioma + hemangiosarcoma, dosed 13 weeks, study length 104 weeks): 16.9 mg/kg/day
- TD50 (site: all sites, lesion: hemangioma + hemangiosarcoma, dosed 26 weeks, study length 104 weeks): 17.7 mg/kg/day
- TD50 (site: all sites, lesion: hemangioma + hemangiosarcoma, dosed 40 weeks, study length 104 weeks): 17.3 mg/kg/day
- TD50 (site: all sites, lesion: hemangioma + hemangiosarcoma, dosed 52 weeks, study length 104 weeks): 11.1 mg/kg/day
- TD50 (site: all sites, lesion: hemangioma + hemangiosarcoma, dosed 82 weeks, study length 104 weeks): 38 mg/kg/day
- TD50 (site: all sites, lesion: hemangioma, dosed 13 weeks, study length 104 weeks): 45.8 mg/kg/day
- TD50 (site: all sites, lesion: hemangioma, dosed 40 weeks, study length 104 weeks): 95.2 mg/kg/day
- TD50 (site: all sites, lesion: hemangiosarcoma, dosed 13 weeks, study length 104 weeks): 21.9 mg/kg/day
- TD50 (site: all sites, lesion: hemangiosarcoma, dosed 26 weeks, study length 104 weeks): 17.7 mg/kg/day
- TD50 (site: all sites, lesion: hemangiosarcoma, dosed 40 weeks, study length 104 weeks): 20.8 mg/kg/day
- TD50 (site: all sites, lesion: hemangiosarcoma, dosed 52 weeks, study length 104 weeks): 11.9 mg/kg/day
- TD50 (site: all sites, lesion: hemangiosarcoma, dosed 82 weeks, study length 104 weeks): 45.5 mg/kg/day
- TD50 (site: all sites, lesion: histiocytic sarcoma + malignant lymphoma, histiocytic type + malignant lymphoma, mixed type + malignant lymphoma, lymphocytic, dosed 82 weeks, study length 104 weeks): 63.5 mg/kg/day
- TD50 (site: all sites, lesion: histiocytic sarcoma + malignant lymphoma, mixed type + malignant lymphoma, lymphocytic type + malignant lymphoma, dosed 13 weeks, study length 104 weeks): 26.2 mg/kg/day
- TD50 (site: all sites, lesion: histiocytic sarcoma + malignant lymphoma, mixed type + malignant lymphoma, lymphocytic type + malignant lymphoma, dosed 26 weeks, study length 104 weeks): 28.8 mg/kg/day
- TD50 (site: all sites, lesion: histiocytic sarcoma + malignant lymphoma, mixed type + malignant lymphoma, lymphocytic type + malignant lymphoma, dosed 40 weeks, study length 104 weeks): 57.1 mg/kg/day
- TD50 (site: all sites, lesion: histiocytic sarcoma + malignant lymphoma, mixed type + malignant lymphoma, lymphocytic type + malignant lymphoma, dosed 52 weeks, study length 104 weeks): 27.6 mg/kg/day
- TD50 (site: all sites, lesion: histiocytic sarcoma, dosed 13 weeks, study length 104 weeks): 91.1 mg/kg/day
- TD50 (site: all sites, lesion: histiocytic sarcoma, dosed 26 weeks, study length 104 weeks): 396 mg/kg/day
- TD50 (site: all sites, lesion: histiocytic sarcoma, dosed 40 weeks, study length 104 weeks): 128 mg/kg/day
- TD50 (site: all sites, lesion: histiocytic sarcoma, dosed 52 weeks, study length 104 weeks): 110 mg/kg/day
- TD50 (site: all sites, lesion: histiocytic sarcoma, dosed 82 weeks, study length 104 weeks): 157 mg/kg/day
- TD50 (site: all sites, lesion: malignant lymphoma, NOS, dosed 60 weeks, study length 60 weeks): 105 mg/kg/day
- TD50 (site: all sites, lesion: malignant lymphoma, histiocytic type + malignant lymphoma, mixed type + malignant lymphoma, lymphocytic type + malignant lymph, dosed 82 weeks, study length 104 weeks): 99.8 mg/kg/day
- TD50 (site: all sites, lesion: malignant lymphoma, lymphocytic type, dosed 13 weeks, study length 104 weeks): 66.8 mg/kg/day
- TD50 (site: all sites, lesion: malignant lymphoma, lymphocytic type, dosed 26 weeks, study length 104 weeks): 46 mg/kg/day
- TD50 (site: all sites, lesion: malignant lymphoma, lymphocytic type, dosed 40 weeks, study length 104 weeks): 142 mg/kg/day
- TD50 (site: all sites, lesion: malignant lymphoma, lymphocytic type, dosed 52 weeks, study length 104 weeks): 129 mg/kg/day
- TD50 (site: all sites, lesion: malignant lymphoma, lymphocytic type, dosed 82 weeks, study length 104 weeks): 157 mg/kg/day
- TD50 (site: all sites, lesion: malignant lymphoma, mixed type + malignant lymphoma, lymphocytic type + malignant lymphoma, dosed 13 weeks, study length 104 weeks): 34.9 mg/kg/day

Reference: PubChem BioAssay AID1745844 (Carcinogenic Potency Database (CPDB), 2022)
